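All cell lines were grown in 96-well plates and treated with compound for 48 hours. The concentration for 50% growth inhibition is given as GI50. TGI marks complete inhibition of growth.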
Legend:
Assay in all cases: NCI anticancer screen, dose series, 48 h
SNB-75 CNS = test system: SNB-75 CNS
OVCAR-4 ovarian = test system: OVCAR-4 ovarian
M14 melanoma = test system: M14 melanoma
UACC-257 melanoma = test system: UACC-257 melanoma
NCI-H226 lung = test system: NCI-H226 lung
U251 CNS = test system: U251 CNS
SF-268 CNS = test system: SF-268 CNS
HS 578T breast = test system: HS 578T breast
MALME-3M melanoma = test system: MALME-3M melanoma
T-47D breast = test system: T-47D breast

Structure (SMILES) | GI50 (SNB-75 CNS) [µM] | TGI (SNB-75 CNS) [µM] | GI50 (OVCAR-4 ovarian) [µM] | TGI (OVCAR-4 ovarian) [µM] | GI50 (M14 melanoma) [µM] | TGI (M14 melanoma) [µM] | GI50 (UACC-257 melanoma) [µM] | TGI (UACC-257 melanoma) [µM] | GI50 (NCI-H226 lung) [µM] | TGI (NCI-H226 lung) [µM] | GI50 (U251 CNS) [µM] | TGI (U251 CNS) [µM] | GI50 (SF-268 CNS) [µM] | TGI (SF-268 CNS) [µM] | GI50 (HS 578T breast) [µM] | TGI (HS 578T breast) [µM] | TGI (MALME-3M melanoma) [µM] | GI50 (MALME-3M melanoma) [µM] | TGI (T-47D breast) [µM]
Cc1cc2nc(-c3c(F)cccc3Cl)n(Cc3c(F)cccc3Cl)c2cc1C | 45.5 | > 100 | 19 | 74.1 | 11.5 | 26.7 | 16.4 | 38.3 | 15 | 38.3 | 14.1 | 29.9 | 11 | 31.7 | 15.8 | 48.4 |  |  | 
COC(=O)C(C(=O)C(N)=O)c1csc(-n2nc(-c3ccccc3)cc2-c2ccccc2)n1 (stereo unspecified) |  | > 31.6 |  | > 31.6 |  | > 31.6 |  | > 31.6 |  | > 31.6 |  | > 31.6 |  | > 31.6 |  |  | > 31.6 |  | 
[CH3][Sn]1([CH3])[O]CC(COc2cc(Cl)c(Cl)cc2Cl)[O]1 (stereo unspecified) | 23.1 | 68.8 | > 100 | > 100 | 39.6 | > 100 | 99 | > 100 | 30.7 | > 100 | > 100 | > 100 | 74.9 | > 100 |  |  | > 100 | > 100 | 
O=C(/C=C/c1ccccc1)CCC1C(=O)NC(=S)NC1=O |  |  |  |  |  | > 100 |  | > 100 |  | > 100 |  | > 100 |  | > 100 |  | > 100 |  |  | > 100
CCOC(=O)c1c(C)n(Cc2ccccc2)c2c1cc1oc(=O)c(=O)n3cnc2c13 | 28.5 | > 50 | 19.8 | > 50 | 18.3 | > 50 | 17 | 48.3 | 20.3 | > 50 | 12 | > 50 | 15.3 | > 50 | 34.3 | > 50 |  |  | 
CC(=O)NC(CCCN(Cc1ccccc1)C(=O)N(C)N=O)C(=O)NCc1ccccc1 (stereo unspecified) |  | 91 |  | > 100 |  | > 100 |  | > 100 |  | > 100 |  | > 100 |  | > 100 |  |  | > 100 |  | 
CC(C(N)=O)N(C)C(=O)c1cnc2ccccc2c1 (stereo unspecified) |  | > 100 |  | > 100 |  | > 100 |  | > 100 |  | > 100 |  | > 100 |  |  |  |  | > 100 |  | > 100
Cc1ccc2nc(NC(=O)C(=O)CC(=O)c3cccc4ccccc34)sc2c1 |  | 36.5 |  | 32.1 |  | 44.2 |  | 82.2 |  | > 100 |  | 49.7 |  | > 100 |  |  | 70.2 |  | 
Cc1noc(/N=C2\C=C(Nc3onc(C)c3C)C(=O)c3ccccc32)c1C |  | > 100 |  | > 100 |  | > 100 |  | > 100 |  | > 100 |  | > 100 |  | > 100 |  |  | > 100 |  | 
CC(=O)OC(=O)O/C=C\CCl |  | > 100 |  | > 100 |  | > 100 |  | > 100 |  | > 100 |  | > 100 |  | > 100 |  |  | > 100 |  | 
COC(=O)C(=O)C(C(=O)C(=O)Nc1cc(Cl)c(Cl)cc1Cl)c1nc2ccc([N+](=O)[O-])cc2[nH]c1=O (stereo unspecified) |  |  |  | > 100 |  | > 100 |  | > 100 |  | > 100 |  | > 100 |  | > 100 |  |  | > 100 |  | 
CCc1cc(Cc2ccc(C)c(NC(=O)C(=O)C3C(=O)NC(=O)NC3=O)c2CC)cc(C)c1NC(=O)C(=O)C1C(=O)NC(=O)NC1=O |  | > 100 |  | > 100 |  | > 100 |  | > 100 |  |  |  | > 100 |  | > 100 |  |  | > 100 |  | 
CC1=CC(=O)NP(=O)(C23CC4CC(CC(C4)C2)C3)N1 (stereo unspecified) |  | > 100 |  | > 100 |  | > 100 |  | > 100 |  | > 100 |  | > 100 |  | > 100 |  |  | > 100 |  | 
O=CCCCC(Sc1ccccc1)Sc1ccccc1 |  | 35.9 |  | 45.6 |  | 51.3 |  | 48.5 |  |  |  | 30.3 |  | 43.3 |  |  |  |  | 
COc1ccc2c(c1)c1c3n2CCNN=C3CCC1 |  | > 100 |  | > 100 |  | > 100 |  | > 100 |  | > 100 |  | > 100 |  | > 100 |  |  | > 100 |  | 
CCCCCCCCCCCCCCCCCC(=O)NCC(COP(=O)(O)O)OCC (stereo unspecified) |  | 82.5 |  | > 100 |  | > 100 |  | > 100 |  | 58.4 |  |  |  | 61.2 |  |  | > 100 |  | 

From PubChem BioAssay (NCI)
